Reference: ChEMBL document CHEMBL1140006, “2-Cycloalkyl phenoxyacetic acid CRTh2 receptor antagonists” (Bioorg Med Chem Lett, 2007)
Activity calls are given as the source filed them. The rule behind the calls is not given here.

Key:
[1] = target: T1, Prostaglandin D2 receptor 2 (Homo sapiens, UniProt Q9Y5Y4); test: Displacement of […] from human CRTh2 receptor expressed in CHO cells; format: cell-based
T1 sequence (Q9Y5Y4 whole entry): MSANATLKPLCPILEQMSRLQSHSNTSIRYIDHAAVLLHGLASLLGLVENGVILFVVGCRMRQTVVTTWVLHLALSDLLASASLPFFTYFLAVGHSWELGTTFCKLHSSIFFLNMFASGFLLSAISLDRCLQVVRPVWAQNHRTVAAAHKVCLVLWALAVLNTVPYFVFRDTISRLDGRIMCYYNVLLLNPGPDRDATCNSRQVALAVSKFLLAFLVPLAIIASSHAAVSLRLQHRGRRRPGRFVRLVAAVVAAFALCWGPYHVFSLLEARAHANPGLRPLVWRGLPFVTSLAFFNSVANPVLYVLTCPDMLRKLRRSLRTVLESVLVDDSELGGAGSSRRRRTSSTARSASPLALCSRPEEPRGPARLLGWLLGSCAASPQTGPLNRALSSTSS

[2] = target: T2, Prostaglandin D2 receptor (Homo sapiens, UniProt Q13258); test: Binding affinity at prostanoid DP receptor
T2 sequence (Q13258 whole entry): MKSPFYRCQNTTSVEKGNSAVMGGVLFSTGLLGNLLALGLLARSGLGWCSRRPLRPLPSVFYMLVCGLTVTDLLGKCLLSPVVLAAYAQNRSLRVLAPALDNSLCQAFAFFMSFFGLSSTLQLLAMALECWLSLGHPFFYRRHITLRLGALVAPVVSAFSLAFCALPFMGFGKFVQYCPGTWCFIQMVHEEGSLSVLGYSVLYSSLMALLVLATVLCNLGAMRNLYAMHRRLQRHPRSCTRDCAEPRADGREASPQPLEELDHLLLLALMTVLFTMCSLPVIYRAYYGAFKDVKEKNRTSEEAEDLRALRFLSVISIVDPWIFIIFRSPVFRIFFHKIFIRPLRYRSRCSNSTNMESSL

Eosinophil [3] = test: Inhibition of 13,14-dihydro-15-ketoprostaglandin D2-stimulated human eosinophils shape change; format: functional, cell-based
[4] = target: Prostaglandin E2 receptor EP2 subtype (Homo sapiens, UniProt P43116); test: Binding affinity at prostanoid EP2 receptor
Chain of Prostaglandin E2 receptor EP2 subtype (P43116 whole entry): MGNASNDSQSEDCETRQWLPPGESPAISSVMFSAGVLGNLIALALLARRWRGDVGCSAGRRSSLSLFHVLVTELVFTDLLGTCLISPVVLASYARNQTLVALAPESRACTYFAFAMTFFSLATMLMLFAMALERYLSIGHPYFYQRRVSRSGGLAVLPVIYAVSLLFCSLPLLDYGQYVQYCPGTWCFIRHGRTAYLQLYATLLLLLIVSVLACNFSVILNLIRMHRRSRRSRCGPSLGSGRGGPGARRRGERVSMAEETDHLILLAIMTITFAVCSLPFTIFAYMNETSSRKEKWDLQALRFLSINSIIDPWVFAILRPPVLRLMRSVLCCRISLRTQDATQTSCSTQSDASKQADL

Thromboxane A2 receptor = target: T3, Thromboxane A2 receptor (Homo sapiens, UniProt P21731); test: Binding affinity at prostanoid TP receptor
T3 sequence (P21731 whole entry): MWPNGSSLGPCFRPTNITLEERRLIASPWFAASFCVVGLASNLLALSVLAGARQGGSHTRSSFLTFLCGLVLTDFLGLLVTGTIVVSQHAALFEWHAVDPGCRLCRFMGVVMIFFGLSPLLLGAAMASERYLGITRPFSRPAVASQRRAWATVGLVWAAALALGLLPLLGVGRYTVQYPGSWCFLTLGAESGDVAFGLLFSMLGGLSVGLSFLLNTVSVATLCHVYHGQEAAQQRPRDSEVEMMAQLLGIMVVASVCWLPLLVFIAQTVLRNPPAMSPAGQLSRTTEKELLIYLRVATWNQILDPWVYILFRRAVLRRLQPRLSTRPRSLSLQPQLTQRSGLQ

Eosinophil [5] = test: Inhibition of 13,14-dihydro-15-ketoprostaglandin D2-stimulated human eosinophils shape change upto 10 uM; format: functional, cell-based
Cytochrome P450 3A4 = Cytochrome P450 3A4 (Homo sapiens, UniProt P08684); test: Inhibition of CYP3A4; format: ADME
Chain of Cytochrome P450 3A4 (P08684 whole entry): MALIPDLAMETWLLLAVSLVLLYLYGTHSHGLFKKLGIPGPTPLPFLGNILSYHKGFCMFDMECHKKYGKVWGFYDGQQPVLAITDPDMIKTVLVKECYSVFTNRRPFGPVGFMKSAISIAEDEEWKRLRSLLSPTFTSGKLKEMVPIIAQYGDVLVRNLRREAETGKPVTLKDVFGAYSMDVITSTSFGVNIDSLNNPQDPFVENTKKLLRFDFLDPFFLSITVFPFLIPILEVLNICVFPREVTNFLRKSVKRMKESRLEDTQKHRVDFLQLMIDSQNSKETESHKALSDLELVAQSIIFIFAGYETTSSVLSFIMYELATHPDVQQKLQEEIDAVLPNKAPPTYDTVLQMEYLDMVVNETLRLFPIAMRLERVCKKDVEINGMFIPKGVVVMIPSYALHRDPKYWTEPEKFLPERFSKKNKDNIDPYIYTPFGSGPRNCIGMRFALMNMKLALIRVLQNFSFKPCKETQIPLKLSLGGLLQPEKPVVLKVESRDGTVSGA

Cytochrome P450 2D6 = Cytochrome P450 2D6 (Homo sapiens, UniProt P10635); test: Inhibition of CYP2D6; format: ADME
Chain of Cytochrome P450 2D6 (P10635 whole entry): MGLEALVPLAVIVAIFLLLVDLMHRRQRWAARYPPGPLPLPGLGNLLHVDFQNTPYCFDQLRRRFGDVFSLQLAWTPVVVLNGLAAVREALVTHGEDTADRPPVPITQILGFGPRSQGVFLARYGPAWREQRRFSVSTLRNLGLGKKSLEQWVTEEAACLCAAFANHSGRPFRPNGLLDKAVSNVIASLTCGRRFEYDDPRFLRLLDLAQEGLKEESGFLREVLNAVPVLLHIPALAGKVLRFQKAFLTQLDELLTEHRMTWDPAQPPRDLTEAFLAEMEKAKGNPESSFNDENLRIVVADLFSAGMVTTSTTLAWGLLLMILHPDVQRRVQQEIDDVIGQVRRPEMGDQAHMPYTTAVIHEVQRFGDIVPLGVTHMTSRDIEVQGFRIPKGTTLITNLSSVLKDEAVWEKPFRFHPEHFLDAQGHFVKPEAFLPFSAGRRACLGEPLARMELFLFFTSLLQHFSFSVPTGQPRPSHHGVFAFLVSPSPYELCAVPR

Cytochrome P450 1A2 = target: T4, Cytochrome P450 1A2 (Homo sapiens, UniProt P05177); test: Inhibition of CYP1A2; format: ADME
T4 sequence (P05177 whole entry): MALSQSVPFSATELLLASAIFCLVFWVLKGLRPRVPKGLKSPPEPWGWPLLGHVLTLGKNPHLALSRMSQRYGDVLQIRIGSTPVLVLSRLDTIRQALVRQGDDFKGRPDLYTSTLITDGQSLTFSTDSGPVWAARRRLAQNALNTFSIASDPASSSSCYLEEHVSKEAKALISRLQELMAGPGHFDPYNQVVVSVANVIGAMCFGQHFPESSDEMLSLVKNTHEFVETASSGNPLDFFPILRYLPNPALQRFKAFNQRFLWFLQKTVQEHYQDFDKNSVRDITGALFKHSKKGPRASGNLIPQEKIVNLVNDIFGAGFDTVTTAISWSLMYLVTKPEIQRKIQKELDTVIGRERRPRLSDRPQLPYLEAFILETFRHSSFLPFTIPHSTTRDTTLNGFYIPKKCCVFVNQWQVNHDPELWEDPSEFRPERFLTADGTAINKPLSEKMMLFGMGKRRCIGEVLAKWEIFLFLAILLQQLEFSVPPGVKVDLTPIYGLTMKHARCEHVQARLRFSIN

Cytochrome P450 2C19 = Cytochrome P450 2C19 (Homo sapiens, UniProt P33261); test: Inhibition of CYP2C19; format: ADME
Chain of Cytochrome P450 2C19 (P33261 whole entry): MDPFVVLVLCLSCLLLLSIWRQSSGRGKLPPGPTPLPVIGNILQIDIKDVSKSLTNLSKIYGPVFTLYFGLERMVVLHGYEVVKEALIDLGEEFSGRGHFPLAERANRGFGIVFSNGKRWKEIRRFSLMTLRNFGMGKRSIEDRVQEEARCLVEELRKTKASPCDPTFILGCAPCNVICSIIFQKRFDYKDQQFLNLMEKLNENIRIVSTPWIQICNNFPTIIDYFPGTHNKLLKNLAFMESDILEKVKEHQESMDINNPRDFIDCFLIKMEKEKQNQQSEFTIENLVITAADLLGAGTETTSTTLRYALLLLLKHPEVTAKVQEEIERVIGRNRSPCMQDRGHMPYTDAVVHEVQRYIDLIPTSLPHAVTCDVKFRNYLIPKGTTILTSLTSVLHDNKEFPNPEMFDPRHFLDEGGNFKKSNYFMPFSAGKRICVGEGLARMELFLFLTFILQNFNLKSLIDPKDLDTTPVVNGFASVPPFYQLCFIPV

Cytochrome P450 2C9 = Cytochrome P450 2C9 (Homo sapiens, UniProt P11712); test: Inhibition of CYP2C9; format: ADME
Chain of Cytochrome P450 2C9 (P11712 whole entry): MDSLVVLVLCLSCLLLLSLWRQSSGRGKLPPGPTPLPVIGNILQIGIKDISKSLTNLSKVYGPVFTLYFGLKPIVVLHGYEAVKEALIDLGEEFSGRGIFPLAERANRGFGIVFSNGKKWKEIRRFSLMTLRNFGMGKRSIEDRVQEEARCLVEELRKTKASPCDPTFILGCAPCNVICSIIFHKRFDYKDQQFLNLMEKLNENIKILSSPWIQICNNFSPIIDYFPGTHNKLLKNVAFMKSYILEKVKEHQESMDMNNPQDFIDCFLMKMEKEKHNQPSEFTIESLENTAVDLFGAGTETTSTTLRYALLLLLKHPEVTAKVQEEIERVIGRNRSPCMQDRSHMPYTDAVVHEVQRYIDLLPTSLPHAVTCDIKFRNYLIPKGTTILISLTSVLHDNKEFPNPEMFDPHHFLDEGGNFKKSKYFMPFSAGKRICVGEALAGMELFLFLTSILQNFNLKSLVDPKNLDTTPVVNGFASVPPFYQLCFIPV

[6] = Intrinsic clearance in human microsomes; format: ADME, Microsome
[7] = Intrinsic clearance in rat microsomes; format: ADME, Microsome
[8] = Permeability from apical to basolateral side of Caco-2 cell membrane; format: ADME, cell-based; settings: human, read-out: permeability
[9] = Permeability from basolateral to apical side of Caco-2 cell membrane; format: ADME, cell-based; settings: human, read-out: permeability
[10] = Half life in rat at 0.5 mg/kg, iv; format: ADME, organism-based; set-up: dose 0.5 mg/kg, route intravenous; settings: in vivo
[11] = Clearance in rat; format: ADME, organism-based; settings: in vivo
[12] = Volume of distribution at steady state in rat; format: ADME, organism-based; settings: in vivo, read-out: Vdss
[13] = Oral bioavailability in rat at 2 mg/kg; format: ADME, organism-based; settings: in vivo
[14] = AUCall in rat; format: ADME, organism-based; settings: plasma
[15] = Cmax in rat; format: ADME, organism-based; settings: in vivo

C=CCc1cc(Cl)ccc1OCC(=O)O
Ki [1]: 5130 nM | Ki [2]: 4740 nM

O=C(O)CCOc1ccc(Cl)cc1C1CCCCC1
Ki [1]: 799 nM | Ki [2]: > 10000 nM

Cc1cc(Cl)ccc1OCC(=O)O [METAXON]
Ki [1]: > 10000 nM | Ki [2]: > 10000 nM

O=C(O)COc1ccccc1C1CCCCC1
Ki [1]: 311 nM | Ki [2]: > 10000 nM

C[C@H](Oc1ccc(Cl)cc1C1CCCCC1)C(=O)O
Ki [2]: 4490 nM

Cc1ccc(OCC(=O)O)c(C2CCCCC2)c1
Ki [1]: 353 nM | Ki [2]: > 10000 nM

CC1(c2cc(Cl)ccc2OCC(=O)O)CCCCC1
Ki [1]: 90 nM | IC50 (Eosinophil [3]): 451 nM | Ki [2]: 1210 nM

Clc1ccc(OCc2nnn[nH]2)c(C2CCCCC2)c1
Ki [1]: > 10000 nM | Ki [2]: > 10000 nM

N#Cc1ccc(OCC(=O)O)c(C2CCCCC2)c1
Ki [1]: 230 nM | IC50 (Eosinophil [3]): 52 nM | Ki [2]: > 10000 nM

COC(=O)COc1ccc(Cl)cc1C1CCCCC1
Ki [1]: 3280 nM | Ki [2]: 8900 nM

O=C(O)CCCOc1ccc(Cl)cc1C1CCCCC1
Ki [1]: 1990 nM | Ki [2]: > 10000 nM

O=C(O)COc1ccc(-c2ccc(F)cc2)cc1C1CCCCC1
Ki [1]: 99 nM | Ki [2]: 6400 nM

O=C(O)COc1ccc(C(F)(F)F)cc1C1CCCCC1
Ki [1]: 20 nM | IC50 (Eosinophil [3]): 172 nM | Ki [2]: > 10000 nM

O=C(O)COc1ccc(Cl)cc1C1CCCC1
Ki [1]: 150 nM | IC50 (Eosinophil [3]): 1010 nM | Ki [2]: 4800 nM

OCCOc1ccc(Cl)cc1C1CCCCC1
Ki [1]: > 10000 nM | Ki [2]: > 10000 nM

C[C@@H](Oc1ccc(Cl)cc1C1CCCCC1)C(=O)O
Ki [2]: > 10000 nM

O=C(O)COc1ccc(Cl)cc1C1CCCCC1
Ki [1]: 154 nM | IC50 (Eosinophil [3]): 93 nM | Ki [2]: 7600 nM | Ki [4]: 3000 nM | Ki (Thromboxane A2 receptor): > 10000 nM

O=C(O)COc1ccc(Br)cc1C1CCCCC1
Ki [1]: 83 nM | IC50 (Eosinophil [3]): 448 nM | Ki [2]: 5900 nM

CS(=O)(=O)NC(=O)COc1ccc(Cl)cc1C1CCCCC1
Ki [1]: > 10000 nM | Ki [2]: > 10000 nM

O=C(O)COc1ccc(Cl)cc1C1CCCCCC1
Ki [1]: 59 nM | IC50 (Eosinophil [3]): 248 nM | Ki [2]: 1880 nM | Activity (Eosinophil [5]): inactive | IC50 (Cytochrome P450 3A4): > 10000 nM | IC50 (Cytochrome P450 2D6): > 10000 nM | IC50 (Cytochrome P450 1A2): > 10000 nM | IC50 (Cytochrome P450 2C19): > 10000 nM | IC50 (Cytochrome P450 2C9): > 10000 nM | microsomal CLint [6]: 109 µL/min/mg | microsomal CLint [7]: 205 µL/min/mg | Papp A→B [8]: 8.4 ×10⁻⁶ cm/s | Papp B→A [9]: 21.4 ×10⁻⁶ cm/s | half-life [10]: 1.18 h | clearance [11]: 7.3 mL/min/kg | Vd [12]: 0.52 L/kg | bioavailability [13]: 58% | AUC [14]: 11.6 µM·h | Cmax [15]: 4.7 µM

O=C(O)COc1ccc(F)cc1C1CCCCC1
Ki [1]: 446 nM | Ki [2]: > 10000 nM

COc1ccc(OCC(=O)O)c(C2CCCCC2)c1
Ki [1]: 782 nM | Ki [2]: > 10000 nM
